Patent US7422733B2, “Linkable sialyl Lewis X analogs” (Bracco International B.V., priority 2000, dated 2008)

Assays:
E-selectin [1] = target: T1, E-selectin (Homo sapiens, UniProt P16581); assay: binding of radiolabeled analog 3b to human aortic endothelial cells in vitro (E-selectin binding assay); design: endogenous in cells; host or cells: human aortic endothelial cells, stimulated with TNF-alpha or unstimulated
T1 sequence (P16581 22-610): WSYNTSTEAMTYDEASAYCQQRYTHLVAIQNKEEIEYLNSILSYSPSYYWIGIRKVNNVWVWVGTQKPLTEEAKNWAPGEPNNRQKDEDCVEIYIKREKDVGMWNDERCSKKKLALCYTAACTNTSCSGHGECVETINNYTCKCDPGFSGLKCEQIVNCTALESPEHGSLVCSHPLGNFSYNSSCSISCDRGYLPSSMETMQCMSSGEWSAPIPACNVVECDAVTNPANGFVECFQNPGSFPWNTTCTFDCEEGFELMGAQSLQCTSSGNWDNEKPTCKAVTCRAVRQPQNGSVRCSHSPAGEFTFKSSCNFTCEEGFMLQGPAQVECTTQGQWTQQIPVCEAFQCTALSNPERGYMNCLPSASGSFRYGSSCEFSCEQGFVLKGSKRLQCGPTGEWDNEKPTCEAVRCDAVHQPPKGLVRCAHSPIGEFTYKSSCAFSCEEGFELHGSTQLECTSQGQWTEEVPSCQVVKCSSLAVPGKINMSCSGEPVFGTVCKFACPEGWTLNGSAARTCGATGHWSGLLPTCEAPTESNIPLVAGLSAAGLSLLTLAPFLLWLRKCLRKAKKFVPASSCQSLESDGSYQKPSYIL
Procedure: We evaluated the ability of the radiolabeled acetamido-phenyl Sialyl Lewis^x analog 3b to bind to human aortic endothelial cells in vitro. […] S. A. DeFrees et al., J. Am. Chem. Soc., 117:66-79 (1995). […] The binding sites were specific to native Sialyl Lewis^x, since it was shown that cold unlabeled Sialyl Lewis^x (formula A) at a concentration of 10 mM displaced close to 50% of the bound counts at 0.2 mM concentration.

E-selectin [2] = target: T1, E-selectin; conditions: in vitro, published value; cited from earlier work

SMILES | displacement of bound counts (E-selectin [1]; cold unlabeled competitor at 10 mM, bound 3b counts at 0.2 mM) [%] | Kd (E-selectin [2]) [µM] | behaviour in E-selectin binding assay compared to native Sialyl Lewis^x (E-selectin [1]) | concentrations at which the analog bound significantly (E-selectin [1]; activated human aortic endothelial cells, 14C-labeled analog) | increase in the extent of binding in TNF-α stimulated cells over unstimulated control cells (E-selectin [1]; cells stimulated with TNF-α vs unstimulated control cells) | binding relative to published Kd of native Sialyl Lewis^x (E-selectin [1]; compared with published value of 1-2 mM)
CC(=O)NC1C(O)OC(CO)C(OC2OC(CO)C(O)C(OC3(C(=O)O)CC(O)C(NC(C)=O)C([C@H](O)[C@H](O)CO)O3)C2O)C1OC1OC(C)C(O)C(O)C1O (stereo partly drawn) [Sialyl Lewis^x, sialyl Lewis X] | ~50 | 1000 to 2000 |  |  |  | 
CC(=O)N[C@H]1[C@H](Oc2ccc(N[14C](C)=O)cc2)O[C@H](CO)[C@@H](O[C@@H]2O[C@H](CO)[C@H](O)[C@H](O[C@]3(C(=O)O)C[C@H](O)[C@@H](NC(C)=O)[C@H]([C@H](O)[C@H](O)CO)O3)[C@H]2O)[C@@H]1O[C@@H]1O[C@@H](C)[C@@H](O)[C@@H](O)[C@@H]1O [compound 3b] |  |  | superior to native Sialyl Lewis^x | 0.1-0.2 mM | two-fold increase | ten fold greater
